Laboratory results as given in US12663562B2, “Polysaccharide hydrogel optical fibers and their fabrication and use” (The Board of Trustees of the Leland Stanford Junior …, priority 2021, dated 2026).

Assays:
Format in all cases: cell-based
DU145 cells = experiment: Spectral fingerprinting (RFP-level transmission, real-time calcein AM metabolism) of cancer cells in living optical fibers; conditions: DU145 cells in fiber core, 48 h culture, 1.5 μM cisplatin or 1 μM staurosporine
Protocol: (§1) To validate the possibility of light carrying information upon interaction with fluorescent molecules, 3T3 fibroblasts were stained with two model fluorescent markers of different wavelengths, namely Orange Cell Tracker CMRA and Calcein AM (Invitrogen) according to manufacturer's instructions. Briefly, 3T3 cells in suspension were incubated with each marker for 30 minutes under 37° C., washed with PBS, and introduced in the optical fiber core as described above. Fibers were then fabricated and aligned in the input-output setup as previously described the light source and spectrometer. Output spectra were collected and spectral ratios were obtained by dividing the spectra of fluorescent-tagged cell-laden fibers to those without fluorescent molecules, in order to confirm the presence of transmission dips in agreement with the marker's excitation curves. For performing calcein AM overtime metabolic tracking, 4 cm-long fibers with unstained cells were aligned in the optical readout setup, and 10 μL of a 1:100 Calcein AM solution in CaPBS was added dropwise along the optical fiber's length. The spectral output was then collected every minute for a total of 10 minutes after the beginning of the calcein AM metabolization. The 495 nm normalized transmission values were obtained by normalizing all spectral curves to their maximum and extracting the normalized intensity values as an average of the 493-495 nm window. These were then plotted overtime.
LNCaP, 22Rv1, and DU145 cells were purchased from the American Type Culture Collection (ATCC; Manassas, VA). All cell lines were authenticated through Stanford Functional Genomics Facility. FUCRW plasmid was a kind gift from Dr. Owen Witte's laboratory at University of California Los Angeles. 22Rv1 and DU145 cells were infected with FUCRW virus expressing red fluorescent protein (RFP). RFP signal was confirmed 72 hours post infection. […]
Spectral fingerprinting tests with the different cell lines were performed by integrating them within optical hydrogel fibers as described in the previous section. […] After 48 h of culture, the living optical fibers were washed twice with PBS to remove media remains that could interfere with optical readouts (e.g., Phenol Red). […] RFP-level transmission readouts were immediately obtained from the first output collected, and calcein activity overtime was then tracked by the addition of calcein and spectral recording every minute for 10 minutes, as described in the previous section. […] Both RFP and calcein signals were analyzed in several pictures per replicate via Cell Profiler, in order to compare the relative post-incubation signal intensities to the relative decreases in fiber optics transmission at each specific wavelength instantly (RFP) and overtime (calcein).

RV122 cancer cells = experiment: Optical fiber anti-cancer drug testing (RFP-level transmission, calcein profiling, image quantification); conditions: for calcein activity profiling (slope of calcein conversion): RV122 cancer cells after culture with drug; for image quantification of native protein expression (RFP) and calcein metabolization: microscopy validation, RV122 cancer cells
Protocol: as §1
LNCaP, 22Rv1, and DU145 cells were purchased from the American Type Culture Collection (ATCC; Manassas, VA). All cell lines were authenticated through Stanford Functional Genomics Facility. FUCRW plasmid was a kind gift from Dr. Owen Witte's laboratory at University of California Los Angeles. 22Rv1 and DU145 cells were infected with FUCRW virus expressing red fluorescent protein (RFP). RFP signal was confirmed 72 hours post infection. LNCaP-RFP-Trop2-OV cells expressing RFP and Trop2 oncogene were generated as previously described ^43. All cells were cultured in RPMI medium supplemented with 10% FBS, 4 mM L-glutamine, and 1% penicillin/streptomycin.
Spectral fingerprinting tests with the different cell lines were performed by integrating them within optical hydrogel fibers as described in the previous section. Briefly, cancer cells were resuspended in the core material at a density of 10 M/mL and cultured in different conditions, namely control medium, 1.5 μM Cisplatin (Biovision) or 1 μM Staurosporine (Biovision). After 48 h of culture, the living optical fibers were washed twice with PBS to remove media remains that could interfere with optical readouts (e.g., Phenol Red). Before measurement, fibers were placed in a 1 mM CaCl2) solution to facilitate their manipulation and were then aligned in the optical characterization setup with spectrometer connection. RFP-level transmission readouts were immediately obtained from the first output collected, and calcein activity overtime was then tracked by the addition of calcein and spectral recording every minute for 10 minutes, as described in the previous section. […] Both RFP and calcein signals were analyzed in several pictures per replicate via Cell Profiler, in order to compare the relative post-incubation signal intensities to the relative decreases in fiber optics transmission at each specific wavelength instantly (RFP) and overtime (calcein).

[1] = system: LnCAP-RFP-Trop2-OV cancer cells; experiment: Digitalization and quantification of 3D cancer invasive proliferation in living optical fibers (output power, RFP-level transmission)
Protocol: In order to evaluate the invasive proliferation of encapsulated cancer cells over time and quantify this response through optics upon exposure to different levels of the anti-proliferative drug cisplatin, the core material was modified by blending alginate with GelTrex (Growth-Factor Reduced Basement Membrane, Thermofisher) at a 50:50 ratio. Fibers with Cells were fabricated as described before with a 10 million/mL density and were cultured for 1 week to observe the cancer tissue development and the formation of fiberoid (fiber-shaped organoids) structures. To do so, fibers were incubated with Calcein AM 1:500 (Invitrogen) and Hoechst 33342 1:1000 (Thermo Scientific), washed with PBS and imaged under confocal microscope (Zeiss). As model cell line, we used the RFP-expressing LNCaP-RFP-Trop2-OV due to its aggressiveness and relevance in metastatic events. To then quantify the effect of cisplatin in the impedance of 3D tumor growth, fibers were cultured over a 5-days period under control conditions and increasing concentrations of cisplatin (1.5, 15 and 150 μM). After each time point, fibers were washed twice with CaPBS, briefly dipped in 1 mM CaCl2) and aligned in the optical characterization setup. Two types of immediate readouts were acquired: output power via powermeter reading and spectral response through spectrometer connection. Output power was directly used as an indicator of light attenuation induced by tumor growth and spectral data was processed to extract RFP-level transmission values, as plotted in the maintext. In parallel, fibers were also axially sectioned and imaged in confocal microscope for observing the distribution of cancer cells and aggregates within the fiber structure overtime and validate the fiber optics readouts.

| Structure (SMILES) | RFP expression (RFP-level transmission) (DU145 cells) | capacity of cells to metabolize calcein (calcein AM real-time profile) (DU145 cells) | calcein activity profiling (slope of calcein conversion) (RV122 cancer cells) | image quantification of native protein expression (RFP) and calcein metabolization (RV122 cancer cells) | RFP expression (RFP-level transmission) ([1]; cisplatin 1.5 µM) | cancer growth (optical fiber output power) ([1]; cisplatin 1.5 μM, up to 5 days) | RFP expression (RFP-level transmission) ([1]; cisplatin 15 μM) | cancer growth (optical fiber output power) ([1]; cisplatin 15 μM, up to 5 days) | RFP expression (RFP-level transmission) ([1]; cisplatin 150 μM, after 1 day of culture) | cancer growth / invasive proliferation (optical fiber output power) ([1]; cisplatin 150 μM, up to 5 days) | native fluorescence, RFP-level transmission (RV122 cancer cells; RV122 cancer cells in fibers after drug exposure) |
| --- | --- | --- | --- | --- | --- | --- | --- | --- | --- | --- | --- |
| N.N.[Cl][Pt][Cl] [cisplatin] | little impact | little impact | decrease in the slope | moderate effect | some effect in the protein's expression by day 5 | no significant impact | noticeable effect after day 3 | prevented considerable growth after 3 days | significant decrease in expression | efficiently inhibited the invasive proliferation |  |
| CN[C@@H]1C[C@H]2O[C@@](C)([C@@H]1OC)n1c3ccccc3c3c4c(c5c6ccccc6n2c5c31)C(=O)NC4 [staurosporine] | significant reduction in RFP expression | drastic inhibition | no longer possible to observe metabolic calcein conversion | more prominent effects |  |  |  |  |  |  | significant decrease in fluorescent |
